Experimental data published in patent US9453026B2, “ACC inhibitors and uses thereof” (Gilead Apollo, Inc., priority 2011, dated 2016).

These compounds were tested against ACC2 (Homo sapiens, UniProt O00763) (assay: In vitro ACC2 inhibition assay (ADP-Glo)). Conditions: read-out: ACC2.
Format: biochemical
Description: An exemplary procedure for the in vitro ACC inhibition assay, which can be used to determine the inhibitory action of compounds of the invention toward either ACC1 or ACC2, follows. The ADP-Glo™ Kinase Assay kit from Promega was used. The ADP-Glo™ Kinase Assay is a luminescent ADP detection assay to measure enzymatic activity by quantifying the amount of ADP produced during an enzyme reaction. The assay is performed in two steps; first, after the enzyme reaction, an equal volume of ADP-Glo™ Reagent is added to terminate the reaction and deplete the remaining ATP. Second, the Kinase Detection Reagent is added to simultaneously convert ADP to ATP and allow the newly synthesized ATP to be measured using a luciferase/luciferin reaction. Luminescence can be correlated to ADP concentrations by using an ATP-to-ADP conversion curve. The detailed procedure is as follows. 50 μL of the compound being tested (600 uM in DMSO) was added to a 384-well dilution plate. The compound was diluted 1:3 in succession in DMSO for each row for 11 wells. 0.5 μL ACC2 working solution was added to 384-well white Optiplate assay plate. 0.5 μL diluted compound solution in each column from step 2 to assay plate, each row containing 2 replicates. […] The plates were incubated at room temperature for 15 minutes. 5 μL substrate working solution was added to each well to initiate reaction. […] Plates were incubated at room temperature for 60 minutes. 10 μL ADP glo reagent was added. Plates were incubated at room temperature for 40 minutes. 20 μL kinase detection reagent was added.
Data for each concentration, as well as the positive and negative controls were averaged, and the standard deviation calculated. Percent inhibition was calculated by the formula: 100× (average negative control−compound)/(average negative control−average positive control). The IC50 for each compound was calculated by fitting the data with a non-linear regression equation: Y=Bottom+(Top-Bottom)/(1+10^((Log IC50−X)*HillSlope)), where X is the log of compound concentration and Y is percent inhibition.
The compound numbers correspond to the compound numbers in Table 1.

ACC2, sequence (O00763 whole entry, species assumed): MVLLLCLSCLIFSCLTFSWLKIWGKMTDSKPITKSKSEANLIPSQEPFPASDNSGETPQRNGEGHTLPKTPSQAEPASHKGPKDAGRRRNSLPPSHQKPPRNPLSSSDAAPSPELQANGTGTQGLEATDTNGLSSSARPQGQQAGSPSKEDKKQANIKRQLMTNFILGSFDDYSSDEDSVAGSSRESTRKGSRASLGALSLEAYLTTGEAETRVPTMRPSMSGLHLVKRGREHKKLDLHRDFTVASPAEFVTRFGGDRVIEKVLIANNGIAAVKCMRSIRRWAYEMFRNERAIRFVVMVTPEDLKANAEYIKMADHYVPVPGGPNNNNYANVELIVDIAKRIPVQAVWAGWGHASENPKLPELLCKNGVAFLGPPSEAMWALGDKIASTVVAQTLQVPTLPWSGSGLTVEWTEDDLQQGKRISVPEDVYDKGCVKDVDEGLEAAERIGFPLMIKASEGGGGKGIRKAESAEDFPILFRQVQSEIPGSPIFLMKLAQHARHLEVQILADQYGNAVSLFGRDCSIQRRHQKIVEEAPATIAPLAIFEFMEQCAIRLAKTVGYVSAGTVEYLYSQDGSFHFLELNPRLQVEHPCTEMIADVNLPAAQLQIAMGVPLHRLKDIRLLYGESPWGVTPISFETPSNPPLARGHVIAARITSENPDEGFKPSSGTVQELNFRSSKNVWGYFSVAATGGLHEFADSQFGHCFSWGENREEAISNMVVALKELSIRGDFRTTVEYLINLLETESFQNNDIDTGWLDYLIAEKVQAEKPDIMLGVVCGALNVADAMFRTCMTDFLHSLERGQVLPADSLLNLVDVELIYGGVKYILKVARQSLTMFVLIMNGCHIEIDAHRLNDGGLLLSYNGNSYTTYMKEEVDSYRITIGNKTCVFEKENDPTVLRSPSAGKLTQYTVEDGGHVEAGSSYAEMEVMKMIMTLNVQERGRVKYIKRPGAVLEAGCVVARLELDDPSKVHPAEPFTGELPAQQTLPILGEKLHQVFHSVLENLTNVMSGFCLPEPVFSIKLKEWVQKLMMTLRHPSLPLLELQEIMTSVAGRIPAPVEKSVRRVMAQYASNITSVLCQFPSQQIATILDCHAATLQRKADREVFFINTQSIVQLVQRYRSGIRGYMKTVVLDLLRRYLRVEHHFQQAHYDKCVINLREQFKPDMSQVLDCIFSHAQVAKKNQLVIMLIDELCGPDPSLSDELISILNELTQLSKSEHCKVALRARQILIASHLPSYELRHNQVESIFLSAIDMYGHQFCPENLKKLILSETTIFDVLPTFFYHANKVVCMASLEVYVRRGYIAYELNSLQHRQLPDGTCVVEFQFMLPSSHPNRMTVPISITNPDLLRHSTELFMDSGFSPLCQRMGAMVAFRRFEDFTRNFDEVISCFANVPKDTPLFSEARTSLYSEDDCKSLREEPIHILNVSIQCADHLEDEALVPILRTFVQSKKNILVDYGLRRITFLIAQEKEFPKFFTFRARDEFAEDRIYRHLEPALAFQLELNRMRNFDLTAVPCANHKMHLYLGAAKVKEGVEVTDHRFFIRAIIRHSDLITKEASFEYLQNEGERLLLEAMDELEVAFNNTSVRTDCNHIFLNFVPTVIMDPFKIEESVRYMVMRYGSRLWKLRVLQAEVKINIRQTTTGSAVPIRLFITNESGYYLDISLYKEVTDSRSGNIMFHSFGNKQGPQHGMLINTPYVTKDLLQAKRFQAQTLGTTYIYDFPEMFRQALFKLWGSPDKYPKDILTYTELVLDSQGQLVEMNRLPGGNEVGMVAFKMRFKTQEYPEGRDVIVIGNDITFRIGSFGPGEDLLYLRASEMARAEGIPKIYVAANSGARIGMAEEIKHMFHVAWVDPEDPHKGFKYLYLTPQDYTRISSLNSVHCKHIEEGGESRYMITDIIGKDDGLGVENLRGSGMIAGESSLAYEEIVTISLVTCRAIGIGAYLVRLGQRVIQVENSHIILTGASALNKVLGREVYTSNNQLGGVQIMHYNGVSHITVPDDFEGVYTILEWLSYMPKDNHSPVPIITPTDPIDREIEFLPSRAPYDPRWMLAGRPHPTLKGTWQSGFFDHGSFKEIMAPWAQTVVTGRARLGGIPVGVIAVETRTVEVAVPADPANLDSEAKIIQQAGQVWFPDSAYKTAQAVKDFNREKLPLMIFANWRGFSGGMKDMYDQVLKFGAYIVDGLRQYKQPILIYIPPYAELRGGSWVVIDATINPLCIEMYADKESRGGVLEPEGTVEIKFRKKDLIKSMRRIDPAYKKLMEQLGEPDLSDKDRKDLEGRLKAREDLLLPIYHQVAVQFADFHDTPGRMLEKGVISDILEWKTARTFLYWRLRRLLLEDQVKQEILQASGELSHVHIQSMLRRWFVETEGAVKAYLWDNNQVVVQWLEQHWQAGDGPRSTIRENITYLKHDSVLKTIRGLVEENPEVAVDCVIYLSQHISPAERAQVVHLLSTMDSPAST

Row | Compound | IC50
1 | CCOC(=O)c1sc2c(c1C)c(=O)n(CC(=O)O)c(=O)n2CC(OC)c1ccccc1 (stereo in doubt) [I-105, 2-[6-(ethoxycarbonyl)-1-[(2S)-2-methoxy-2-phenylethyl]-5-methyl-2,4-dioxo-1H,2H,3H,4H-thieno[2,3-d]pyrimidin-3-yl]acetic acid] | < 1 µM
2 | O=C(O)Cn1c(=O)c2c3c(sc2n(CCc2ccccc2)c1=O)CCCC3 [I-3] | 20 to 50 µM
3 | Cc1c(C(=O)O)sc2c1c(=O)n(CCO)c(=O)n2CCc1ccccc1 [I-5] | > 50 µM
4 | CCOC(=O)c1sc2c(c1C)c(=O)n(CCOC)c(=O)n2CCc1ccccc1 [I-6, ethyl 3-(2-methoxyethyl)-5-methyl-2,4-dioxo-1-(2-phenylethyl)-1H,2H,3H,4H-thieno[2,3-d]pyrimidine-6-carboxylate] | 20 to 50 µM
5 | CCOC(=O)c1sc2c(c1C)c(=O)n(CC(=O)OC(C)(C)C)c(=O)n2CCc1ccccc1 [I-8] | 5 to 20 µM
6 | CCCn1c(=O)c2c(C)c(C(=O)OCC)sc2n(CCc2ccccc2)c1=O [I-9, ethyl 5-methyl-2,4-dioxo-1-(2-phenylethyl)-3-propyl-1H,2H,3H,4H-thieno[2,3-d]pyrimidine-6-carboxylate] | > 50 µM
7 | CCOC(=O)c1sc2c(c1C)c(=O)n(CCO)c(=O)n2Cc1cccc2ccccc12 [I-15] | > 50 µM
8 | CCOC(=O)c1sc2c(c1C)c(=O)n(CCO)c(=O)n2CCc1cccc2ccccc12 [I-22] | > 50 µM
9 | CCOC(=O)c1sc2c(c1C)c(=O)n(CCO)c(=O)n2CCc1ccccc1F [I-23, ethyl 1-[2-(2-fluorophenyl)ethyl]-3-(2-hydroxyethyl)-5-methyl-2,4-dioxo-1H,2H,3H,4H-thieno[2,3-d]pyrimidine-6-carboxylate] | 20 to 50 µM
10 | CCOC(=O)c1sc2c(c1C)c(=O)n(CCO)c(=O)n2CCc1ccc(F)cc1 [I-26, ethyl 1-[2-(4-fluorophenyl)ethyll]-3-(2-hydroxyethyl)-5-methyl-2,4-dioxo-1H,2H,3H,4H-thieno[2,3-d]pyrimidine-6-carboxylate] | 5 to 20 µM
11 | CNC(=O)c1sc2c(c1C)c(=O)n(CCO)c(=O)n2CCc1ccccc1 [I-27] | > 50 µM
12 | CCOC(=O)c1sc2c(c1C)c(=O)n(CCO)c(=O)n2CCC1CCCCC1 [I-28] | > 50 µM
13 | CCOC(=O)c1sc2c(c1C)c(=O)n(CCO)c(=O)n2CCc1cc(F)cc(F)c1 [I-29, ethyl 1-[2-(3,5-difluorophenyl)ethyl]-3-(2-hydroxyethyl)-5-methyl-2,4-dioxo-1H,2H,3H,4H-thieno[2,3-d]pyrimidine-6-carboxylate] | > 50 µM
14 | CCOC(=O)c1sc2c(c1C)c(=O)n(CCO)c(=O)n2CCc1ccc2ccccc2c1 [I-30, ethyl 3-(2-hydroxyethyl)-5-methyl-1-[2-(naphthalen-2-yl)ethyl]-2,4-dioxo-1H,2H,3H,4H-thieno[2,3-d]pyrimidine-6-carboxylate] | > 50 µM
15 | CCOC(=O)c1sc2c(c1C)c(=O)n(CCCCO)c(=O)n2CCc1ccccc1 [I-34, ethyl 3-(4-hydroxybutyl)-5-methyl-2,4-dioxo-1-(2-phenylethyl)-1H,2H,3H,4H-thieno[2,3-d]pyrimidine-6-carboxylate] | 5 to 20 µM
16 | CCOC(=O)c1sc2c(c1C)c(=O)n(CCO)c(=O)n2Cc1csc(C)n1 [I-35] | > 50 µM
17 | COC(=O)c1sc2c(c1C)c(=O)n(CCO)c(=O)n2CCc1ccccc1 [I-37, methyl 3-(2-hydroxyethyl)-5-methyl-2,4-dioxo-1-(2-phenylethyl)-1H,2H,3H,4H-thieno[2,3-d]pyrimidine-6-carboxylate] | 5 to 20 µM
18 | CCOCc1sc2c(c1C)c(=O)n(CCO)c(=O)n2CCc1ccccc1 [I-38, 6-(ethoxymethyl)-3-(2-hydroxyethyl)-5-methyl-1-(2-phenylethyl)-1H,2H,3H,4H-thieno[2,3-d]pyrimidine-2,4-dione] | > 50 µM
19 | COCc1sc2c(c1C)c(=O)n(CCO)c(=O)n2CCc1ccccc1 [I-39, 3-(2-hydroxyethyl)-6-(methoxymethyl)-5-methyl-1-(2-phenylethyl)-1H,2H,3H,4H-thieno[2,3-d]pyrimidine-2,4-dione] | 20 to 50 µM
20 | CCCOC(=O)c1sc2c(c1C)c(=O)n(CCO)c(=O)n2CCc1ccccc1 [I-41, propyl 3-(2-hydroxyethyl)-5-methyl-2,4-dioxo-1-(2-phenylethyl)-1H,2H,3H,4H-thieno[2,3-d]pyrimidine-6-carboxylate] | > 50 µM
21 | CCOC(=O)c1sc2c(c1C)c(=O)n(CC#N)c(=O)n2CCc1ccccc1 [I-43] | 5 to 20 µM
22 | CCOC(=O)c1sc2c(c1C)c(=O)n(CCO)c(=O)n2CCc1nccs1 [I-49] | > 50 µM
23 | CCOC(=O)c1sc2c(c1C)c(=O)n(CC(=O)O)c(=O)n2CCc1ccc(I)cc1 [I-53, 2-[6-(ethoxycarbonyl)-1-[2-(4-iodophenyl)ethyl]-5-methyl-2,4-dioxo-1H,2H,3H,4H-thieno[2,3-d]pyrimidin-3-yl]acetic acid] | 5 to 20 µM

Results, then the compound that gave them:

Row | IC50 | Compound
24 | < 1 µM | CCOC(=O)c1sc2c(c1C)c(=O)n(C(C)(C)C(=O)O)c(=O)n2CC(O)c1ccccc1 (stereo in doubt) [I-103, 2-[6-(ethoxycarbonyl)-1-[(2S)-2-hydroxy-2-phenylethyl]-5-methyl-2,4-dioxo-1H,2H,3H,4H-thieno[2,3-d]pyrimidin-3-yl]-2-methylpropanoic acid]
25 | > 50 µM | O=C(O)Cn1c(=O)c2c3c(sc2n(CC(=O)c2ccccc2)c1=O)CCCC3 [I-2]
26 | 20 to 50 µM | O=C(O)Cn1c(=O)c2c3c(sc2n(CCc2ccccc2)c1=O)CCC3 [I-4]
27 | > 50 µM | CCOC(=O)c1sc2c(c1C)c(=O)n(CC)c(=O)n2CCc1ccccc1 [I-7, ethyl 3-ethyl-5-methyl-2,4-dioxo-1-(2-phenylethyl)-1H,2H,3H,4H-thieno[2,3-d]pyrimidine-6-carboxylate]
28 | > 50 µM | CCOC(=O)c1sc2c(c1C)c(=O)n(CCOCc1ccccc1)c(=O)n2CCc1ccccc1 [I-10, ethyl 3-[2-(benzyloxy)ethyl]-5-methyl-2,4-dioxo-1-(2-phenylethyl)-1H,2H,3H,4H-thieno[2,3-d]pyrimidine-6-carboxylate]
29 | > 50 µM | CCOC(=O)c1sc2c(c1C)c(=O)n(CCO)c(=O)n2CC [I-11, ethyl 1-ethyl-3-(2-hydroxyethyl)-5-methyl-2,4-dioxo-1H,2H,3H,4H-thieno[2,3-d]pyrimidine-6-carboxylate]
30 | > 50 µM | CCOC(=O)c1sc2c(c1C)c(=O)n(CCO)c(=O)n2CCCc1ccccc1 [I-12]
31 | > 50 µM | CCOC(=O)c1sc2c(c1C)c(=O)n(CCO)c(=O)n2Cc1ccc2ccccc2c1 [I-16, ethyl 3-(2-hydroxyethyl)-5-methyl-1-(naphthalen-2-ylmethyl)-2,4-dioxo-1H,2H,3H,4H-thieno[2,3-d]pyrimidine-6-carboxylate]
32 | > 50 µM | CCOC(=O)c1sc2c(c1C)c(=O)n(CCO)c(=O)n2CCc1ccc(Cl)cc1 [I-17]
33 | > 50 µM | CCNC(=O)c1sc2c(c1C)c(=O)n(CCO)c(=O)n2CCc1ccccc1 [I-18]
34 | > 50 µM | CCOC(=O)c1sc2c(c1C)c(=O)n(CCO)c(=O)n2CCc1cccc(Cl)c1 [I-21]
35 | > 50 µM | CCOC(=O)c1sc2c(c1C)c(=O)n(CCO)c(=O)n2CCc1c(F)cccc1F [I-24]
36 | > 50 µM | COC(=O)c1sc2c(c1C)c(=O)n(CCO)c(=O)n2CCc1c(F)cccc1F [I-25]
37 | 20 to 50 µM | CCOC(=O)c1sc2c(c1C)c(=O)n(CCO)c(=O)n2C(C)Cc1ccccc1 (stereo not shown) [I-36, ethyl 3-(2-hydroxyethyl)-5-methyl-2,4-dioxo-1-(1-phenylpropan-2-yl)-1H,2H,3H,4H-thieno[2,3-d]pyrimidine-6-carboxylate]
38 | 20 to 50 µM | Cc1c(C(=O)OCCO)sc2c1c(=O)n(CCO)c(=O)n2CCc1ccccc1 [I-42, 2-hydroxyethyl 3-(2-hydroxyethyl)-5-methyl-2,4-dioxo-1-(2-phenylethyl)-1H,2H,3H,4H-thieno[2,3-d]pyrimidine-6-carboxylate]
39 | > 50 µM | CCOC(=O)c1sc2c(c1C)c(=O)n(CCO)c(=O)n2CCc1nc2ccccc2s1 [I-44]
40 | > 50 µM | Cc1c(C(N)=O)sc2c1c(=O)n(CCO)c(=O)n2CCc1ccccc1 [I-47]
41 | 5 to 20 µM | CCOC(=O)c1sc2c(c1C)c(=O)n(CC(=O)NCCO)c(=O)n2CCc1ccccc1 [I-48, ethyl 3-[[(2-hydroxyethyl)carbamoyl]methyl]-5-methyl-2,4-dioxo-1-(2-phenylethyl)-1H,2H,3H,4H-thieno[2,3-d]pyrimidine-6-carboxylate]
42 | > 50 µM | CCOC(=O)c1sc2c(c1C)c(=O)n(CC(=O)O)c(=O)n2Cc1ccc2c(c1)OCO2 [I-50, 2-[1-(2H-1,3-benzodioxol-5-ylmethyl)-6-(ethoxycarbonyl)-5-methyl-2,4-dioxo-1H,2H,3H,4H-thieno[2,3-d]pyrimidin-3-yl]acetic acid]
43 | > 50 µM | CCOC(=O)c1sc2c(c1C)c(=O)n(CCO)c(=O)n2Cc1ccc2[nH]ccc2c1 [I-51, ethyl 3-(2-hydroxyethyl)-1-(1H-indol-5-ylmethyl)-5-methyl-2,4-dioxo-1H,2H,3H,4H-thieno[2,3-d]pyrimidine-6-carboxylate]
